Results: patent US10640802B2 (priority 2012, dated 2020)
Entries after “also recorded” stand apart in the source; their conditions may differ. Like-named read-outs stand apart in the source and are kept apart here.

Legend:
[1] = target: T1, Acidithiobacillus ferrooxidans AfArsR variant C102S (Cys102 to serine) (Acidithiobacillus ferrooxidans, UniProt B7J952, C102S); conditions: previously observed; cited from earlier work
[2] = tested on: Acidithiobacillus ferrooxidans AfArsR variant C102S (Cys102 eliminated by mutation; pBADarsR / parsO-gfp biosensor in E. coli AW3110); type: cell-based
[3] = target: T1, Acidithiobacillus ferrooxidans AfArsR variant C102S (Cys102 to serine); type: biochemical
[4] = tested on: E. coli AW3110 biosensor cells
[5] = target: Acidithiobacillus ferrooxidans AfArsR repressor, wild type (Acidithiobacillus ferrooxidans, UniProt B7J952); type: biochemical; conditions: pH 7.5
Sequence of Acidithiobacillus ferrooxidans AfArsR repressor, wild type (B7J952 1-118): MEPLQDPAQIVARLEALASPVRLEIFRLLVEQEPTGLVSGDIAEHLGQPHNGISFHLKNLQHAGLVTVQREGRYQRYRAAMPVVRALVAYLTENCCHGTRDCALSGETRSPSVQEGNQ

[6] = tested on: Acidithiobacillus ferrooxidans AfArsR, wild type (pBADarsR / pACYC184-parsO-gfp biosensor in E. coli AW3110); type: cell-based
[7] = tested on: C102S biosensor co-cultured with Burkholderia sp. MR1; type: cell-based, E. coli / Burkholderia sp. MR1
[8] = tested on: C102S mutant biosensor (E. coli strain AW3110); type: cell-based
[9] = tested on: AfarsR-gfp biosensor (E. coli strain AW3110 bearing pBADarsR and pACYC184-parsO-gfp); type: cell-based
wild type AfArsR = type: binding, Acidithiobacillus ferrooxidans
AfArsR C102S mutant = type: binding, Acidithiobacillus ferrooxidans
[10] = read-out: apparent half maximal concentration required for induction

T1 sequence (B7J952 1-118 C102S): as the sequence (B7J952 1-118) above, with C102S counted along it

Compound: O[As](O)O [As(III), arsenite]
- reduction of affinity by substitution of Cys102 with serine [1]: nearly an order of magnitude
- induction / derepression of gfp expression [2]: not responsive; also recorded: did not respond
- response to As(III) [2]: no response
- binding / recognition by C102S [3]: lack of binding; also recorded: no longer recognizes; also recorded: lost its binding ability
- response (anisotropy) [3]: little response
- decrease in cellular fluorescence and growth [4]: ≥ 40 pM
- EC50 ([5]; read-out: concentration required to decrease anisotropy of AfArsR-DNA complex (half-maximal)): ~10 µM
- EC50 ([5]; read-out: half-maximal concentration decreasing anisotropy of AfArsR-DNA complex): ~10 µM
- concentrations sensed by the original biosensor [6]: micromolar concentrations
- induction / derepression of gfp expression [6]: derepressed gfp expression; also recorded: dissociated AfArsR from pars, derepressing gfp expression; also recorded: induced gfp expression
- linear response around concentration [6]: ~10 ppb
- response of the biosensor [6]: practically no response

Compound: C[As](O)O [MAs(III), methylarsenite]
- induction / derepression of gfp expression [2]: proportional to the concentration of the inducer; also recorded: high levels of fluorescence
- EC50 ([2]; read-out: apparent half maximal concentration for induction): ~3 µM
- binding / recognition by C102S [3]: still senses; also recorded: same binding affinity
- response (anisotropy), concentration range [3]: sub-micromolar range
- response to MAs(III), Rox(III) and PhAs(III) relative to wild type [3]: slightly higher than the wild type
- toxic at concentrations in excess of [4]: > 10^−5 M
- induction / derepression of gfp expression [6]: proportional to the concentration of the inducer; also recorded: induced gfp expression
- EC50 [6, 10]: ~3 µM

Compound: O=[As](O)(O)c1ccccc1 [PAA, phenylarsonic acid]
- response of biosensor co-cultured with Burkholderia [7]: didn't respond

Compound: O=[N+]([O-])c1cc([As](=O)(O)O)ccc1O [Rox(V), 3-nitro-4-hydroxybenzenearsonic acid]
- biosensor response (gfp derepression) [8]: unresponsive
- response of biosensor co-cultured with Burkholderia [7]: didn't respond; also recorded: didn't show fluorescent
- biosensor response (gfp derepression) [9]: unresponsive

Compound: Sb(III) [listing 1 of 2 here]
- induction of gfp expression [9]: induced gfp expression

Compound: Sb(III) [listing 2 of 2 here]
- induction / derepression of gfp expression [6]: induced gfp expression

Compound: arsenate [As(V)]
- effect on anisotropy of the AfArsR-DNA complex (wild type AfArsR): no effect

Compound: arsenite [As(III)]
- EC50 (wild type AfArsR; read-out: half-maximal concentration for decrease of anisotropy): ~10 µM
- biosensor response (gfp derepression) [8]: did not respond
- response of Cys102-lacking biosensor [8]: no response
- response of mutant biosensor [8]: no response
- response to addition of arsenite [8]: not responsive
- binding by purified AfArsR C102S mutant (AfArsR C102S mutant): lost its binding ability
- response of C102S AfArsR (anisotropy) (AfArsR C102S mutant): little response
- biosensor response [9]: practically no response
- biosensor response (gfp derepression) [9]: induced
- concentration around which the response is linear [9]: ~10 ppb
- gfp expression upon addition of arsenite [9]: derepressed gfp expression; also recorded: derepressing gfp expression
- induction of gfp expression [9]: induced gfp expression
- EC50 [9, 10]: ~10 µM
